From patent US20130165641A1, “6,11-BRIDGED BIARYL MACROLIDES” (Enanta Pharmaceuticals, Inc., priority 2007, published 2013)
Values after ≈ are worked out from the molar mass of the structure shown.

System: MRSA
Assay: MIC by micro-dilution method, MRSA isolates
Format: cell-based, Staphylococcus aureus
Conditions: compounds of Formula XVI; for MIC MRSA 7662: MRSA isolate 7662; for MIC MRSA 33591: MRSA isolate 33591
Experimental: Susceptibility tests can be used to quantitatively measure the in vitro activity of an antimicrobial agent against a given bacterial isolate. Compounds are tested for in vitro antibacterial activity by a micro-dilution method. Minimal Inhibitory Concentration (MIC) is determined in 96 well microtiter plates utilizing the appropriate broth medium for the observed bacterial isolates. […] The diluted compounds (2 μl/well) are then transferred into sterile, uninoculated medium (0.2 mL) by use of a 96 fixed tip-pipetting station. The inoculum for each bacterial strain is standardized to approximately 5×10^5 CFU/mL by optical comparison to a 0.5 McFarland turbidity standard. The plates are inoculated with 10 μl/well of adjusted bacterial inoculum. The 96 well plates are covered and incubated at 35+/−2° C. for 24 hours in ambient air environment. Following incubation, plate wells are visually examined by Optical Density measurement for the presence of growth (turbidity). The lowest concentration of an antimicrobial agent at which no visible growth occurs is defined as the MIC.
All in vitro testing follows the guidelines described in the Approved Standards M7-A7 protocol, published by the Clinical Laboratory Standards Institute (CLSI).

MIC MRSA 7662	MIC MRSA 33591	SMILES
4.00 µg/mL (≈ 4.49 µM)	8.00 µg/mL (≈ 8.99 µM)	CC[C@H]1OC(=O)[C@@](C)(F)C(=O)[C@H](C)[C@@H](O[C@@H]2O[C@H](C)C[C@H](N(C)C)[C@H]2O)[C@@]2(C)C[C@@H](C)C(=NC(=O)OC)[C@H](C)[C@@H](OC/C(=N\OCc3ccc(-n4ccc(N)n4)cn3)CO2)[C@]1(C)O [Example 124]
4 µg/mL (≈ 4.58 µM)	8 µg/mL (≈ 9.15 µM)	CCC1OC(=O)C(C)(F)C(=O)C(C)C(OC2OC(C)CC(N(C)C)C2O)C2(C)CC(C)C(=NC(C)=O)C(C)C(OCC(=NOCc3ccc(-n4ccc(N)n4)cn3)CO2)C1(C)O (stereo not drawn) [Example 82]
2.00 µg/mL (≈ 2.17 µM)	4.00 µg/mL (≈ 4.35 µM)	CC[C@H]1OC(=O)[C@@](C)(F)C(=O)[C@H](C)[C@@H](O[C@@H]2O[C@H](C)C[C@H](N(C)C)[C@H]2O)[C@@]2(C)C[C@@H](C)C(=NC(=O)C(C)C)[C@H](C)[C@@H](OC/C(=N\OCc3ccc(-c4nsc(N)n4)cn3)CO2)[C@]1(C)O [Example 130]
8 µg/mL (≈ 8.75 µM)	8 µg/mL (≈ 8.75 µM)	CC[C@H]1OC(=O)[C@@](C)(F)C(=O)[C@H](C)[C@@H](O[C@@H]2O[C@H](C)C[C@H](N(C)C)[C@H]2O)[C@@]2(C)C[C@@H](C)C(=NC(=O)C(C)C)[C@H](C)[C@@H](OC/C(=N\OCc3ncc(-c4cccc(N)n4)cn3)CO2)[C@]1(C)O [Example 100]
4.00 µg/mL (≈ 4.42 µM)	8.00 µg/mL (≈ 8.84 µM)	CCC(=O)N=C1[C@H](C)C[C@@]2(C)OC/C(=N/OCc3ccc(-c4nc(N)cs4)nc3)CO[C@H]([C@H]1C)[C@](C)(O)[C@@H](CC)OC(=O)[C@@](C)(F)C(=O)[C@H](C)[C@H]2O[C@@H]1O[C@H](C)C[C@H](N(C)C)[C@H]1O [Example 128]
4 µg/mL (≈ 4.51 µM)	8 µg/mL (≈ 9.02 µM)	CCC(=O)N=C1[C@H](C)C[C@@]2(C)OC/C(=N/OCc3ccc(-c4nc(N)cs4)cn3)CO[C@H]([C@H]1C)[C@](C)(O)[C@@H](CC)OC(=O)[C@H](C)C(=O)[C@H](C)[C@H]2O[C@@H]1O[C@H](C)C[C@H](N(C)C)[C@H]1O [Example 119]
2.00 µg/mL (≈ 2.21 µM)	4.00 µg/mL (≈ 4.42 µM)	CCC(=O)N=C1[C@H](C)C[C@@]2(C)OC/C(=N/OCc3ccc(-c4nsc(N)n4)cc3)CO[C@H]([C@H]1C)[C@](C)(O)[C@@H](CC)OC(=O)[C@@](C)(F)C(=O)[C@H](C)[C@H]2O[C@@H]1O[C@H](C)C[C@H](N(C)C)[C@H]1O [Example 127]
4 µg/mL (≈ 4.41 µM)	4 µg/mL (≈ 4.41 µM)	CCC(=O)N=C1[C@H](C)C[C@@]2(C)OC/C(=N/OCc3ccc(-c4nsc(N)n4)cn3)CO[C@H]([C@H]1C)[C@](C)(O)[C@@H](CC)OC(=O)[C@@](C)(F)C(=O)[C@H](C)[C@H]2O[C@@H]1O[C@H](C)C[C@H](N(C)C)[C@H]1O [Example 123]
4 µg/mL (≈ 4.45 µM)	4 µg/mL (≈ 4.45 µM)	CCC(=O)N=C1C(C)CC2(C)OCC(=NOCc3ccc(-c4cccc(N)n4)cn3)COC(C1C)C(C)(O)C(CC)OC(=O)C(C)(F)C(=O)C(C)C2OC1OC(C)CC(N(C)C)C1O (stereo not drawn) [Example 75]
8 µg/mL (≈ 8.97 µM)	16 µg/mL (≈ 17.9 µM)	CC[C@H]1OC(=O)[C@@](C)(F)C(=O)[C@H](C)[C@@H](O[C@@H]2O[C@H](C)C[C@H](N(C)C)[C@H]2O)[C@@]2(C)C[C@@H](C)C(=NC(C)=O)[C@H](C)[C@@H](OC/C(=N\OCc3ccc(-c4nsc(N)n4)cn3)CO2)[C@]1(C)O [Example 107]
8 µg/mL (≈ 9.06 µM)	8 µg/mL (≈ 9.06 µM)	CCC1OC(=O)C(C)C(=O)C(C)C(OC2OC(C)CC(N(C)C)C2O)C2(C)CC(C)C(=NC(=O)C(C)C)C(C)C(OCC(=NOCc3ccc(-n4ccc(N)n4)cc3)CO2)C1(C)O (stereo not drawn) [Example 90]
2.00 µg/mL (≈ 2.24 µM)	2.00 µg/mL (≈ 2.24 µM)	CC[C@H]1OC(=O)[C@@](C)(F)C(=O)[C@H](C)[C@@H](O[C@@H]2O[C@H](C)C[C@H](N(C)C)[C@H]2O)[C@@]2(C)C[C@@H](C)C(=NC(C)=O)[C@H](C)[C@@H](OC/C(=N\OCc3csc(-c4cccc(N)n4)n3)CO2)[C@]1(C)O [Example 136]
8 µg/mL (≈ 9.04 µM)	8 µg/mL (≈ 9.04 µM)	CCC1OC(=O)C(C)(F)C(=O)C(C)C(OC2OC(C)CC(N(C)C)C2O)C2(C)CC(C)C(=NC(C)=O)C(C)C(OCC(=NOCc3ccc(-c4cccc(N)n4)cn3)CO2)C1(C)O (stereo not drawn) [Example 74]
2 µg/mL (≈ 2.3 µM)	4 µg/mL (≈ 4.6 µM)	CCC(=O)N=C1C(C)CC2(C)OCC(=NOCc3ccc(-n4ccc(N)n4)cc3)COC(C1C)C(C)(O)C(CC)OC(=O)C(C)C(=O)C(C)C2OC1OC(C)CC(N(C)C)C1O (stereo not drawn) [Example 83]
8 µg/mL (≈ 8.89 µM)	8 µg/mL (≈ 8.89 µM)	C=Cc1cn(-c2ccc(CON=C3COC4C(C)C(=NC(C)=O)C(C)CC(C)(OC3)C(OC3OC(C)CC(N(C)C)C3O)C(C)C(=O)C(C)(F)C(=O)OC(CC)C4(C)O)nc2)nc1N (stereo not drawn) [Example 96]
4 µg/mL (≈ 4.58 µM)	4 µg/mL (≈ 4.58 µM)	CCC1OC(=O)C(C)(F)C(=O)C(C)C(OC2OC(C)CC(N(C)C)C2O)C2(C)CC(C)C(=NC(C)=O)C(C)C(OCC(=NOCc3ccc(-n4ccc(N)n4)cc3)CO2)C1(C)O (stereo not drawn) [Example 81]
2.00 µg/mL (≈ 2.21 µM)	4.00 µg/mL (≈ 4.41 µM)	CCC(=O)N=C1[C@H](C)C[C@@]2(C)OC/C(=N/OCc3cnc(-c4nc(N)cs4)cn3)CO[C@H]([C@H]1C)[C@](C)(O)[C@@H](CC)OC(=O)[C@@](C)(F)C(=O)[C@H](C)[C@H]2O[C@@H]1O[C@H](C)C[C@H](N(C)C)[C@H]1O [Example 133]
2 µg/mL (≈ 2.22 µM)	4 µg/mL (≈ 4.43 µM)	CCC1OC(=O)C(C)(F)C(=O)C(C)C(OC2OC(C)CC(N(C)C)C2O)C2(C)CC(C)C(=NC(=O)C(C)C)C(C)C(OCC(=NOCc3ccc(-n4ccc(N)n4)cn3)CO2)C1(C)O (stereo not drawn) [Example 87]
8 µg/mL (≈ 9.16 µM)	8 µg/mL (≈ 9.16 µM)	CCC1OC(=O)C(C)C(=O)C(C)C(OC2OC(C)CC(N(C)C)C2O)C2(C)CC(C)C(=NC(C)=O)C(C)C(OCC(=NOCc3ccc(-n4ccc(N)n4)cc3F)CO2)C1(C)O (stereo not drawn) [Example 84]
8 µg/mL (≈ 8.99 µM)	8 µg/mL (≈ 8.99 µM)	CCC1OC(=O)C(C)C(=O)C(C)C(OC2OC(C)CC(N(C)C)C2O)C2(C)CC(C)C(=NC(C)=O)C(C)C(OCC(=NOCc3ccc(-n4ccc(N)n4)cc3Cl)CO2)C1(C)O (stereo not drawn) [Example 88]
2 µg/mL (≈ 2.21 µM)	4 µg/mL (≈ 4.42 µM)	CCC(=O)N=C1[C@H](C)C[C@@]2(C)OC/C(=N/OCc3cnc(-c4cccc(N)n4)s3)CO[C@H]([C@H]1C)[C@](C)(O)[C@@H](CC)OC(=O)[C@@](C)(F)C(=O)[C@H](C)[C@H]2O[C@@H]1O[C@H](C)C[C@H](N(C)C)[C@H]1O [Example 117]
4 µg/mL (≈ 4.38 µM)	4 µg/mL (≈ 4.38 µM)	CCCC(=O)N=C1C(C)CC2(C)OCC(=NOCc3ccc(-c4cccc(N)n4)cn3)COC(C1C)C(C)(O)C(CC)OC(=O)C(C)(F)C(=O)C(C)C2OC1OC(C)CC(N(C)C)C1O (stereo not drawn) [Example 76]
4 µg/mL (≈ 4.38 µM)	8 µg/mL (≈ 8.75 µM)	CC[C@H]1OC(=O)[C@@](C)(F)C(=O)[C@H](C)[C@@H](O[C@@H]2O[C@H](C)C[C@H](N(C)C)[C@H]2O)[C@@]2(C)C[C@@H](C)C(=NC(=O)C(C)C)[C@H](C)[C@@H](OC/C(=N\OCc3ccc(-c4nccc(N)n4)cn3)CO2)[C@]1(C)O [Example 114]
8 µg/mL (≈ 8.86 µM)	8 µg/mL (≈ 8.86 µM)	CC[C@H]1OC(=O)[C@@](C)(F)C(=O)[C@H](C)[C@@H](O[C@@H]2O[C@H](C)C[C@H](N(C)C)[C@H]2O)[C@@]2(C)C[C@@H](C)C(=NC(C)=O)[C@H](C)[C@@H](OC/C(=N\OCc3ccc(-n4ccc(N)n4)cc3OC)CO2)[C@]1(C)O [Example 99]
4 µg/mL (≈ 4.49 µM)	8 µg/mL (≈ 8.98 µM)	CCC1OC(=O)C(C)(F)C(=O)C(C)C(OC2OC(C)CC(N(C)C)C2O)C2(C)CC(C)C(=NC(C)=O)C(C)C(OCC(=NOCc3ccc(-n4ccc(N)n4)cc3F)CO2)C1(C)O (stereo not drawn) [Example 85]
8 µg/mL (≈ 9.03 µM)	8 µg/mL (≈ 9.03 µM)	CC[C@H]1OC(=O)[C@@](C)(F)C(=O)[C@H](C)[C@@H](O[C@@H]2O[C@H](C)C[C@H](N(C)C)[C@H]2O)[C@@]2(C)C[C@@H](C)C(=NC(C)=O)[C@H](C)[C@@H](OC/C(=N\OCc3cnc(-c4cccc(N)n4)cn3)CO2)[C@]1(C)O [Example 103]
4 µg/mL (≈ 4.42 µM)	8 µg/mL (≈ 8.84 µM)	CCC(=O)N=C1[C@H](C)C[C@@]2(C)OC/C(=N/OCc3ccc(-c4csc(N)n4)cn3)CO[C@H]([C@H]1C)[C@](C)(O)[C@@H](CC)OC(=O)[C@@](C)(F)C(=O)[C@H](C)[C@H]2O[C@@H]1O[C@H](C)C[C@H](N(C)C)[C@H]1O [Example 125]
2 µg/mL (≈ 2.24 µM)	4 µg/mL (≈ 4.49 µM)	CC[C@H]1OC(=O)[C@@](C)(F)C(=O)[C@H](C)[C@@H](O[C@@H]2O[C@H](C)C[C@H](N(C)C)[C@H]2O)[C@@]2(C)C[C@@H](C)C(=NC(C)=O)[C@H](C)[C@@H](OC/C(=N\OCc3ccc(-c4nc(N)cs4)cn3)CO2)[C@]1(C)O [Example 101]
2.00 µg/mL (≈ 2.2 µM)	2.00 µg/mL (≈ 2.2 µM)	[2H]C([2H])([2H])C([2H])([2H])C(=O)N=C1[C@H](C)C[C@@]2(C)OC/C(=N/OCc3ccc(-c4nc(N)cs4)cn3)CO[C@H]([C@H]1C)[C@](C)(O)[C@@H](CC)OC(=O)[C@@](C)(F)C(=O)[C@H](C)[C@H]2O[C@@H]1O[C@H](C)C[C@H](N(C)C)[C@H]1O [Example 135]
8 µg/mL (≈ 8.98 µM)	8 µg/mL (≈ 8.98 µM)	CCC1OC(=O)C(C)(F)C(=O)C(C)C(OC2OC(C)CC(N(C)C)C2O)C2(C)CC(C)C(=NC(C)=O)C(C)C(OCC(=NOCc3ccc(-n4ccc(N)n4)c(F)c3)CO2)C1(C)O (stereo not drawn) [Example 95]
